Source: publication PMC2263054, “Functional evolution of the vitamin D and pregnane X receptors” (BMC Evolutionary Biology, 2007)
Where two headings read alike, the source gives them in different places.

Experiments:
Type in all cases: cell-based
Xenopus laevis VDR = molecular target: T1, Xenopus laevis VDR (Xenopus laevis, UniProt O13124); test: luciferase reporter transactivation assay in HepG2-NTCP cells, GAL4/xlVDR LBD chimera with tk-UAS-Luc
T1 sequence (O13124 90-422): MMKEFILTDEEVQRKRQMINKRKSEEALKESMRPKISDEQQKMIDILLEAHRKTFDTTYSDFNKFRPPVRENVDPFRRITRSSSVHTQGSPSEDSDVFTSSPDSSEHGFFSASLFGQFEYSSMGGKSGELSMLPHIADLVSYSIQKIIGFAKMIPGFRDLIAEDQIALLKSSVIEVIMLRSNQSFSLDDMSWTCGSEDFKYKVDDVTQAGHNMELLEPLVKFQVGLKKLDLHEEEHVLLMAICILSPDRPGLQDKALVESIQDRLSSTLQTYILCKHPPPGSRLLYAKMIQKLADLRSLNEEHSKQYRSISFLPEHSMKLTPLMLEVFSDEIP

Zebrafish VDR = molecular target: T2, Zebrafish VDR (Danio rerio, UniProt Q9PTN2); test: luciferase reporter transactivation assay in HepG2-NTCP cells, GAL4/zfVDR LBD chimera with tk-UAS-Luc
T2 sequence (Q9PTN2 121-453): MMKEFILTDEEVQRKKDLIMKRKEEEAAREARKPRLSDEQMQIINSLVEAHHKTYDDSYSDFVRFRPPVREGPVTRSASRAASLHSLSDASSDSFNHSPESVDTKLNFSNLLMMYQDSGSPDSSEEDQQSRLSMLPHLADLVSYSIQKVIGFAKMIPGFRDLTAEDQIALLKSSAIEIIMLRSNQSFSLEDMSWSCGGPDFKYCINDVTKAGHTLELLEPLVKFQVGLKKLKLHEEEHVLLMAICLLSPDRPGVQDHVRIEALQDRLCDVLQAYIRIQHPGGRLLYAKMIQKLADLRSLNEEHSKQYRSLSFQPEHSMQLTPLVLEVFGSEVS

Sea lamprey VDR = molecular target: T3, Sea lamprey VDR (Petromyzon marinus, UniProt Q7ZZY9)
T3 sequence (Q7ZZY9 92-406): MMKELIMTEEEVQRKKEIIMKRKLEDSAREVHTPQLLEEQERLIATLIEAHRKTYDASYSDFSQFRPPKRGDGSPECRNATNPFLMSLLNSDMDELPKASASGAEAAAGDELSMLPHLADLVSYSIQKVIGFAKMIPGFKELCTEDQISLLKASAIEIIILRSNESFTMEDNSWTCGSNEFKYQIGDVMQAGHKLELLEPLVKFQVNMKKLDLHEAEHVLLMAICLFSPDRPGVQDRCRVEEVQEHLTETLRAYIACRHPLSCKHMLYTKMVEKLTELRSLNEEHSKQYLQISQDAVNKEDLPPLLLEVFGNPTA

[1] = screening for activators, at least three concentrations of each drug

4-Pregnen-17,20b-diol-3-one sulfate
No effect: Effect on Xenopus laevis VDR (Xenopus laevis VDR; [1]) | Effect on zebrafish VDR (Zebrafish VDR; [1]) | Effect on sea lamprey VDR (Sea lamprey VDR; [1])

17-Hydroxyprogesterone
No effect: Effect on Xenopus laevis VDR (Xenopus laevis VDR; [1]) | Effect on zebrafish VDR (Zebrafish VDR; [1]) | Effect on sea lamprey VDR (Sea lamprey VDR; [1])

C[C@]12CC[C@@H]3c4cc(O)c(O)cc4CC[C@H]3[C@@H]1CCC2=O [2-Hydroxyestrone]
No effect: Effect on Xenopus laevis VDR (Xenopus laevis VDR; [1]) | Effect on zebrafish VDR (Zebrafish VDR; [1]) | Effect on sea lamprey VDR (Sea lamprey VDR; [1])

O=C(O)CCc1cc(I)c(O)c(I)c1 [3,5-Diiodo-4-hydroxyphenylpropionic acid]
No effect: Effect on Xenopus laevis VDR (Xenopus laevis VDR; [1]) | Effect on zebrafish VDR (Zebrafish VDR; [1]) | Effect on sea lamprey VDR (Sea lamprey VDR; [1])

N[C@@H](Cc1cc(I)c(O)c(I)c1)C(=O)O.O.O [3,5-Diiodo-L-tyroside dihydrate]
No effect: Effect on Xenopus laevis VDR (Xenopus laevis VDR; [1]) | Effect on zebrafish VDR (Zebrafish VDR; [1]) | Effect on sea lamprey VDR (Sea lamprey VDR; [1])

C[C@@]12C=CC[C@H]1[C@@H]1CCC3=CC(=O)CC[C@]3(C)[C@H]1CC2 [4,16-Androstadien-3-one]
No effect: Effect on Xenopus laevis VDR (Xenopus laevis VDR; [1]) | Effect on zebrafish VDR (Zebrafish VDR; [1]) | Effect on sea lamprey VDR (Sea lamprey VDR; [1])

CC1=C(/C=C/C(C)=C/C=C/C(C)=C/C(=O)O)C(C)(C)CCC1O (stereo not drawn) [4-Hydroxretinoic acid]
No effect: Effect on Xenopus laevis VDR (Xenopus laevis VDR; [1]) | Effect on zebrafish VDR (Zebrafish VDR; [1]) | Effect on sea lamprey VDR (Sea lamprey VDR; [1])

CC1=C(/C=C/C(C)=C/C=C/C(C)=C/C(=O)Nc2ccc(O)cc2)C(C)(C)CCC1 [4-Hydroxyphenylretinamide]
No effect: Effect on Xenopus laevis VDR (Xenopus laevis VDR; [1]) | Effect on zebrafish VDR (Zebrafish VDR; [1]) | Effect on sea lamprey VDR (Sea lamprey VDR; [1])

COc1c(O)ccc2c1CC[C@@H]1[C@@H]2CC[C@]2(C)C(=O)CC[C@@H]12 [4-Methoxyestrone]
No effect: Effect on Xenopus laevis VDR (Xenopus laevis VDR) | Effect on zebrafish VDR (Zebrafish VDR) | Effect on sea lamprey VDR (Sea lamprey VDR)

C[C@]12CCC(=O)C=C1CC[C@@H]1[C@@H]2CC[C@@]2(C)[C@H]1CC[C@]2(O)C(=O)CO [4-Pregnen-17,21-diol-3,20-dione]
No effect: Effect on Xenopus laevis VDR (Xenopus laevis VDR; [1]) | Effect on zebrafish VDR (Zebrafish VDR; [1]) | Effect on sea lamprey VDR (Sea lamprey VDR; [1])

CCCCCC=CCC=CCC=CCC=CCCCC(=O)O [5,8,11,14-Eicosatetranoic acid]
No effect: Effect on Xenopus laevis VDR (Xenopus laevis VDR; [1]) | Effect on zebrafish VDR (Zebrafish VDR; [1]) | Effect on sea lamprey VDR (Sea lamprey VDR; [1])

C[C@@]12C=CC[C@H]1[C@@H]1CC=C3C[C@@H](O)CC[C@]3(C)[C@H]1CC2 [5,16-Androstadien-3b-ol]
No effect: Effect on Xenopus laevis VDR (Xenopus laevis VDR; [1]) | Effect on zebrafish VDR (Zebrafish VDR; [1]) | Effect on sea lamprey VDR (Sea lamprey VDR; [1])

CC[C@@]1(O)CC[C@H]2[C@@H]3CC=C4C[C@@H](OS(=O)(=O)O)CC[C@]4(C)[C@H]3CC[C@@]21C [5-Pregnen-3b,17-diol 3-sulfate]
No effect: Effect on Xenopus laevis VDR (Xenopus laevis VDR; [1]) | Effect on zebrafish VDR (Zebrafish VDR; [1]) | Effect on sea lamprey VDR (Sea lamprey VDR; [1])

C[C@]12CC[C@@H](O)C[C@@H]1CC[C@@H]1[C@@H]2CC[C@]2(C)[C@@H](O)CC[C@@H]12 [5a-Androstan-3a,17b-diol]
No effect: Effect on Xenopus laevis VDR (Xenopus laevis VDR; [1]) | Effect on zebrafish VDR (Zebrafish VDR; [1]) | Effect on sea lamprey VDR (Sea lamprey VDR; [1])

C[C@@]12CCC[C@H]1[C@@H]1CC[C@H]3C[C@@H](O)CC[C@]3(C)[C@H]1CC2 [5a-Androstan-3b-ol]
No effect: Effect on Xenopus laevis VDR (Xenopus laevis VDR; [1]) | Effect on zebrafish VDR (Zebrafish VDR; [1]) | Effect on sea lamprey VDR (Sea lamprey VDR; [1])

CC(CO)CCC[C@@H](C)[C@H]1[C@H](O)C[C@H]2[C@@H]3[C@H](O)C[C@H]4C[C@H](O)CC[C@]4(C)[C@H]3CC[C@]12C (stereo partly drawn) [5a-Cholestan-3a,7a,16a,27-tetrol]
No effect: Effect on Xenopus laevis VDR (Xenopus laevis VDR; [1]) | Effect on zebrafish VDR (Zebrafish VDR; [1]) | Effect on sea lamprey VDR (Sea lamprey VDR; [1])

C[C@]12CC[C@@H](O)C[C@@H]1CC[C@@H]1[C@@H]2[C@@H](O)C[C@]2(C)[C@@H](C(=O)CO)CC[C@@H]12 [5a-Pregnan-3a,11b,21-triol-20-one]
No effect: Effect on Xenopus laevis VDR (Xenopus laevis VDR; [1]) | Effect on zebrafish VDR (Zebrafish VDR; [1]) | Effect on sea lamprey VDR (Sea lamprey VDR; [1])
